6 compounds from ChEMBL document CHEMBL5728279, “Toll-like receptor 7 (TLR7) agonists having a pyridine or pyrazine moiety, conjugates thereof, and methods and uses therefor” (2021) can be followed below.

In the experiment the target is T1, Toll-like receptor 7 (Homo sapiens, UniProt Q9NYK1).
T1 sequence (Q9NYK1 whole entry): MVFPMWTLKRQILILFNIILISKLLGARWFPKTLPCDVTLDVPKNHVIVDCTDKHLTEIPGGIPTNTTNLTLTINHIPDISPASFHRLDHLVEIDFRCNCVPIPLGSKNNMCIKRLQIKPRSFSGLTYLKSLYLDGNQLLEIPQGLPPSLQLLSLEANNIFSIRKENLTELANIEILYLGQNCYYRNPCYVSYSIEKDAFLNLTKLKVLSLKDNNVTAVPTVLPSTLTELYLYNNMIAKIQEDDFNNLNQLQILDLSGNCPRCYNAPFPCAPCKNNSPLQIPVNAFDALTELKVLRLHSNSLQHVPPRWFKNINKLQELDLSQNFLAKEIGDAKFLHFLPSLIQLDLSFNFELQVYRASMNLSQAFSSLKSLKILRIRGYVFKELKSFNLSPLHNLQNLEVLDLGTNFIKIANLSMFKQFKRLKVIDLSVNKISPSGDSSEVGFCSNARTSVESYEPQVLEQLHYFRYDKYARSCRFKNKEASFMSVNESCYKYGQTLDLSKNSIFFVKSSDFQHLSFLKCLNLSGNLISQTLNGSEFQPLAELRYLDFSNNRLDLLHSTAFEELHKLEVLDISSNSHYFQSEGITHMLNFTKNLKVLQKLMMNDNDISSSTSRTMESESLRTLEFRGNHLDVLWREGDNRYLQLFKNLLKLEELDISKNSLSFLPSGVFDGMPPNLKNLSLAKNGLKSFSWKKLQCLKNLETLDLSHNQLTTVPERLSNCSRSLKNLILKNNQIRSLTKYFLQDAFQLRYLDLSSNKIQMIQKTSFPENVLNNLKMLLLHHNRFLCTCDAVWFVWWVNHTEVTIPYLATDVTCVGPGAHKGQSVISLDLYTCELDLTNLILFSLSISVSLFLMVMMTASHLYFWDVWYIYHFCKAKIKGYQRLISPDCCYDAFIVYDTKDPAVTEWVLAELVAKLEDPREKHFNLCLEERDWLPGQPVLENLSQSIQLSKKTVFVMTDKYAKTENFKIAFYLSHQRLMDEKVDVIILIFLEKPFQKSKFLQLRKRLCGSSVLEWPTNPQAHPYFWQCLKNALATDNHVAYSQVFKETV
In words: HEK-Blue™ TLR7 cells were added to each well of a 384-well tissue-culture plate (15,000 cells per well) and incubated 16-18 h at 37° C., 5% CO2. Compounds (100 nl) were dispensed into wells containing the HEK-Blue™ TLR cells and the treated cells were incubated at 37° C., 5% CO2. After 18 h treatment ten microliters of freshly-prepared Quanti-Blue™ reagent (Invivogen) was added to each well, incubated for 30 min (37° C., 5% CO2) and SEAP levels measured using an Envision plate reader (OD=620 nm).
For `CCCCOc1nc(N)c2nc(O)n(Cc3ccc(CNCc4ccccc4)nc3)c2n1`, the EC50 (commonly the concentration that produces a half-maximal response) amounted to 110 nM. The same measure for `CCCCOc1nc(N)c2nc(O)n(Cc3ccc(CNC4CCCC4)nc3)c2n1`: 2.9 nM; for `CCCCOc1nc(N)c2nc(O)n(Cc3ccc(CNCc4ccccc4)cn3)c2n1`: 22 nM; for `CCCCOc1nc(N)c2nc(O)n(Cc3ccc(CN4CCC(N)CC4)nc3)c2n1`: 3.1 nM. The value for `CCCCCCNCc1ccc(Cn2c(O)nc3c(N)nc(OCCCC)nc32)cn1` was 11 nM; that for `CCCCOc1nc(N)c2nc(O)n(Cc3ccc(CN4CCC(CN)CC4)nc3)c2n1` was 4.9 nM.
